Laboratory results as given in patent US9790211B2, “5-amino-quinoline-8-carboxamide derivatives as 5-HT4 receptor agonists” (SUVEN LIFE SCIENCES LIMITED, priority 2013, dated 2017).
Read-outs that look alike come from different tables or passages of the source.

Biological target: T1, recombinant human 5-HT4 receptor (Homo sapiens, UniProt Q13639)
T1 construct: expressed in transfected cells
Assay: Determination of EC50 values for 5-HT4 receptor (CHO cells, pCRE-Luc reporter)
Type: cell-based
Settings: for EC50: 4 hours incubation
Procedure: Determination of EC50 Values for 5-HT4 Receptor
A stable CHO cell line expressing recombinant human 5-HT4 receptor and pCRE-Luc reporter system was used for cell-based assay. The assay offers a non-radioactive based approach to determine binding of a compound to GPCRs. In this specific assay, the level of intracellular cyclic AMP, which is modulated by activation, or inhibition of the receptor is measured. The recombinant cells harbor luciferase reporter gene under the control of cAMP response element.
The above cells were grown in 96 well clear bottom white plates in Hams F12 medium containing 10% fetal bovine serum (FBS). Prior to the addition of compounds or standard agonist, cells were serum starved overnight. Increasing concentrations of test compounds were added in OptiMEM medium to the cells. The incubation was continued at 37° C. in CO2 incubator for 4 hours. Medium was removed and cells were washed with phosphate buffered saline. The cells were lysed and luciferase activity was measured in a Luminometer. Luminescence units were plotted against the compound concentrations using Graphpad software.

[1] = CHO cells, human 5-HT4 receptor, luciferase reporter
[2] = CHO, CHO cells, human 5-HT4 receptor, luciferase reporter, read-out: Emax

T1 sequence (Q13639 whole entry): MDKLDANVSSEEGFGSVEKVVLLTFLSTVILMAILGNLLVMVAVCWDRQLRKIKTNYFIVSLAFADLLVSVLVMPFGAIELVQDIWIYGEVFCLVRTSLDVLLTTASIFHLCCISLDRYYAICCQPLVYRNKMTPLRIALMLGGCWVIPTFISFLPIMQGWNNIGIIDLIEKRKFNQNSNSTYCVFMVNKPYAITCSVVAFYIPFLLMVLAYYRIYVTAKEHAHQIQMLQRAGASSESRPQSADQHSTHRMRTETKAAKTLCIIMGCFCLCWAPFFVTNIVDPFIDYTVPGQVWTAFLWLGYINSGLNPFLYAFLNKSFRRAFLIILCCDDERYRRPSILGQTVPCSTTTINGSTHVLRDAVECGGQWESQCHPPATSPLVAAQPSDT

Emax [2] [%]	Compound	Emax [1] [%]	EC50 [1] [nM]	Emax (CHO) [%]
–	5-Amino-6-chloro-N-{[3-(2-fluoro-2-methyl propyl)-3-azabicyclo[3.1.0]hex-6-yl]methyl} quinoline-8-carboxamide [Example 47]	79	1.6	–
54	Nc1c(Cl)cc(C(=O)NCC2[C@H]3CN(CC4CCOCC4)C[C@@H]23)c2ncccc12 (mixture of isomers) [Example 15, 5-Amino-6-chloro-N-{[3-(tetrahydro-2H-pyran-4-ylmethyl)-3-azabicyclo[3.1.0]hex-6-yl]methyl}quinoline-8-carboxamide (exo/endo mixture)]	–	0.5	–
79	Nc1c(Cl)cc(C(=O)NC2CCN(CC3CCOCC3)CC2)c2ncccc12 [Example 3, 5-Amino-6-chloro-N-[1-(tetrahydro-2H-pyran-4-ylmethyl)-4-piperidinyl]quinoline-8-carboxamide]	–	2.5	–
–	Nc1c(Cl)cc(C(=O)NCC2CCN(C3CCOCC3)CC2)c2ncccc12 [Example 6, 5-Amino-6-chloro-N-{[1-(tetrahydro-2H-pyran-4-yl)-4-piperidinyl]methyl}quinoline-8-carboxamide L(+)-tartarate]	–	0.1	56
71	Nc1c(Cl)cc(C(=O)NCC2C3CN(CC4CCOC4)CC23)c2ncccc12 (centres unmarked) [Example 7, 5-Amino-6-chloro-N-{[3-(tetrahydro-3-furanylmethyl)-3-azabicyclo[3.1.0]hex-6-yl]methyl}quinoline-8-carboxamide]	–	0.57	–
–	CC(C)CN1CC2C(CNC(=O)c3cc(Cl)c(N)c4cccnc34)C2C1 (stereo not drawn) [Example 8, 5-Amino-6-chloro-N-{[3-isobutyl-3-azabicyclo[3.1.0]hex-6-yl]methyl}quinoline-8-carboxamide L(+)-tartarate]	–	0.7	87
–	Nc1c(Cl)cc(C(=O)NCC2C3CN(CC4CC4)CC23)c2ncccc12 (stereo not drawn) [Example 9, 5-Amino-6-chloro-N-{[3-cyclopropylmethyl-3-azabicyclo[3.1.0]hex-6-yl]methyl} quinoline-8-carboxamide L(+)-tartarate]	–	0.8	87
–	CC(C)N1CC2C(CNC(=O)c3cc(Cl)c(N)c4cccnc34)C2C1 (stereo not drawn) [Example 10, 5-Amino-6-chloro-N-{[3-isopropyl-3-azabicyclo[3.1.0]hex-6-yl]methyl}quinoline-8-carboxamide L(+)-tartarate]	–	1.5	83
–	Nc1c(F)cc(C(=O)NCC2CCN(CC3CCOCC3)CC2)c2ncccc12 [Example 11, 5-Amino-6-fluoro-N-{[1-(tetrahydro-2H-pyran-4-ylmethyl)-4-piperidinyl]methyl} quinoline-8-carboxamide L(+)-tartarate]	–	0.3	77
–	Nc1c(Cl)cc(C(=O)NCC2CCN(CC3CCOCC3)C2)c2ncccc12 (stereo not drawn) [Example 12, 5-Amino-6-chloro-N-{[1-(tetrahydro-2H-pyran-4-ylmethyl)-3-pyrrolidinyl]methyl} quinoline-8-carboxamide L(+)-tartarate]	–	0.2	83
–	Nc1c(Br)cc(C(=O)NCC2CCN(CC3CCOCC3)CC2)c2ncccc12 [Example 16, 5-Amino-6-bromo-N-{[1-(tetrahydro-2H-pyran-4-ylmethyl)-4-piperidinyl]methyl} quinoline-8-carboxamide L(+)-tartarate]	–	0.08	62
–	Nc1c(Br)cc(C(=O)NCC2C3CN(CC4CCOCC4)CC23)c2ncccc12 (stereo not drawn) [Example 17, 5-Amino-6-bromo-N-{[3-(tetrahydro-2H-pyran-4-ylmethyl)-3-azabicyclo[3.1.0]hex-6-yl]methyl}quinoline-8-carboxamide L(+)-tartarate]	–	0.8	72
–	Nc1c(Cl)cc(C(=O)NCC2(F)CCN(CC3CCOCC3)CC2)c2ncccc12 [Example 20, 5-Amino-6-chloro-N-{[4-fluoro-1-(tetrahydro-2H-pyran-4-ylmethyl)-4-piperidinyl]methyl}quinoline-8-carboxamide L(+)-tartarate]	–	1.1	58
–	Nc1c(Cl)cc(C(=O)NCC2(O)CCN(CC3CCOCC3)CC2)c2ncccc12 [Example 22, 5-Amino-6-chloro-N-{[4-hydroxy-1-(tetrahydro-2H-pyran-4-ylmethyl)-4-piperidinyl]methyl}quinoline-8-carboxamide L(+)-tartarate]	–	0.2	86
81	Nc1c(Cl)cc(C(=O)NC2CCN(CC3(O)CCOCC3)CC2)c2ncccc12 [Example 24, 5-Amino-6-chloro-N-[1-(4-hydroxytetrahydro-2H-pyran-4-ylmethyl)-4-piperidinyl] quinoline-8-carboxamide]	–	4.1	–
–	Nc1c(Cl)cc(C(=O)NCC2C3CN(CC4(O)CCOCC4)CC23)c2ncccc12 (stereo not drawn) [Example 25, 5-Amino-6-chloro-N-{[3-(4-hydroxytetrahydro-2H-pyran-4-ylmethyl)-3-azabicyclo[3.1.0]hex-6-yl]methyl}quinoline-8-carboxamideL(+)-tartarate]	–	0.6	93
–	Nc1c(F)cc(C(=O)NCC2CCN(CC3(O)CCOCC3)CC2)c2ncccc12 [Example 28]	–	0.1	66
–	Nc1c(Cl)cc(C(=O)NCC2(O)CCN(CC3(O)CCOCC3)CC2)c2ncccc12 [Example 29, 5-Amino-6-chloro-N-{[4-hydroxy-1-(4-hydroxytetrahydro-2H-pyran-4-ylmethyl)-4-piperidinyl]methyl}quinoline-8-carboxamide L(+)-tartarate]	–	0.1	84
–	Nc1c(Cl)cc(C(=O)NCC2CCN(CC3(F)CCOCC3)CC2)c2ncccc12 [Example 30, 5-Amino-6-chloro-N-{[1-(4-fluorotetrahydro-2-pyran-4-ylmethyl)-4-piperidinyl]methyl}quinoline-8-carboxamide L(+)tartarate]	–	0.1	65
60	COC(=O)C(C)(C)CN1CCC(CNC(=O)c2cc(Cl)c(N)c3cccnc23)CC1 [Example 31, 5-Amino-6-chloro-N-{[1-(2-methoxycarbonyl-2-methylpropan-1-yl)-4-piperidinyl]methyl}quinoline-8-carboxamide]	–	0.3	–
–	CC(C)(CN1CCC(CNC(=O)c2cc(Cl)c(N)c3cccnc23)CC1)C(=O)O [Example 32, 5-Amino-6-chloro-N-{[1-(2,2-dimethylproponic acid-3-yl)-4-piperidinyl]methyl}quinoline-8-carboxamide L(+)-tartarate]	–	1.2	60
–	CC(C)(O)CN1CCC(CNC(=O)c2cc(Cl)c(N)c3cccnc23)CC1 [Example 35, 5-Amino-6-chloro-N-{[1-(2-hydroxy-2-methylpropyl)-4-piperidinyl]methyl}quinoline-8-carboxamide L(+)-tartarate]	–	0.1	48
–	CC(C)(O)CN1CCC(F)(CNC(=O)c2cc(Cl)c(N)c3cccnc23)CC1.Cl [Example 38, 5-Amino-6-chloro-N-{[4-fluoro-1-(2-hydroxy-2-methylpropyl)-4-piperidinyl]methyl} quinoline-8-carboxamide hydrochloride]	54	1.3	–
–	CC(C)(O)CN1CC2C(CNC(=O)c3cc(Cl)c(N)c4cccnc34)C2C1 (stereo not drawn) [Example 40, 5-Amino-6-chloro-N-{(3-(2-hydroxy-2-methylpropyl)-3-azabicyclo[3.1.0]hex-6-yl]methyl} quinoline-8-carboxamide L(+)-tartarate]	–	3.9	63
–	CC(C)(O)CN1CCC(CNC(=O)c2cc(F)c(N)c3cccnc23)CC1 [Example 41, 5-Amino-6-fluoro-N-{[1-(2-hydroxy-2-methylpropyl)-4-piperidinyl]methyl}quinoline-8-carboxamide L(+)-tartarate]	–	0.2	64
–	CC(C)(O)CN1CCC(CNC(=O)c2cc(Br)c(N)c3cccnc23)CC1 [Example 44, 5-Amino-6-bromo-N-{[1-(2-hydroxy-2-methylpropyl)-4-piperidinyl]methyl} quinoline-8-carboxamide L(+)-tartarate]	–	0.3	52
–	CC(C)(O)CN1CCC(F)(CNC(=O)c2cc(Br)c(N)c3cccnc23)CC1 [Example 45, 5-Amino-6-bromo-N-{[4-fluoro-1-(2-hydroxy-2-methylpropyl)-4-piperidinyl]methyl} quinoline-8-carboxamide L(+)-tartarate]	–	11.8	89

Compound	Emax [2] [%]	Emax [1] [%]	EC50 [1] [nM]	Emax (CHO) [%]
Nc1c(Cl)cc(C(=O)NCC2CCN(CC3(O)CCOCC3)CC2)c2ncccc12 [Example 26, 5-Amino-6-chloro-N-{[1-(4-hydroxytetrahydro-2H-pyran-4-ylmethyl)-4-piperidinyl]methyl}quinoline-8-carboxamide]	65	–	–	–
CC(C)(O)CN1CCC(F)(CNC(=O)c2cc(Cl)c(N)c3cccnc23)CC1 [Example 36, 5-Amino-6-chloro-N-{[4-fluoro-1-(2-hydroxy-2-methylpropyl)-4-piperidinyl]methyl} quinoline-8-carboxamide]	74	–	2.3	–
CC(C)(O)CN1CCC(F)(CNC(=O)c2cc(F)c(N)c3cccnc23)CC1 [Example 42, 5-Amino-6-fluoro-N-{[4-fluoro-1-(2-hydroxy-2-methylpropyl)-4-piperidinyl]methyl} quinoline-8-carboxamide]	74	–	4	–
